Measured values: patent publication US20090192312A1, “Brain Function-Improving Agent, and Functional Food Containing the Improving Agent” (MITSUBISHI GAS CHEMICAL COMPANY, INC., priority 2006, published 2009)

Test system: Male Wistar rats
Experiment: Morris water maze test of learning and memory abilities
Format: in vivo
Conditions: feed containing 0.02% PQQ·2Na, 21 days of breeding; one trial daily for 20 days; versus PQQ·2Na-free treatment groups; 9 animals per group
From the text: Male Wistar rats (9 weeks old) were bred using a feed containing 0.02% pyrroloquinoline quinone disodium salt (PQQ·2Na) or 0.3% coenzyme Q10 (CoQ10) alone or both in combination or a feed free from these compounds. From the age of 12 week old after 21 days of breeding, 9 animals per group were subjected to a test of learning and memory abilities using a Morris water maze. Specifically, the bottom of a circular pool (150 cm in diameter, 45 cm in depth) was divided into four quadrants with white lines. A circular platform was placed at the center of one of the quadrants so that it was hidden under the water. Each rat was allowed to swim from different positions of the other three quadrants having no platform, and the time until it reached the platform was measured. This test was tried once daily for a total of 20 days. The learning rate was calculated by the following equation: Learning rate (%)=100−(mean time until rat reaches the platform at the Xth trial/mean time until rat reaches the platform at the first trial)×100

For `O=C(O)c1cc(C(=O)O)c2c(n1)C(=O)C(=O)c1cc(C(=O)O)[nH]c1-2.[Na].[Na]` [PQQ·2Na, pyrroloquinoline quinone disodium salt], the “increasing rate of the learning rate” value was “statistically significantly higher”.
